Laboratory results reported in patent publication US20050282743A1, “Molecular interactions in cells” (Arbor Vita Corporation, priority 2001, published 2005).
Ends that are not written are not given here. * marks the point of attachment. Biotin = O=C1N[C@H]2[C@H](CS[C@H]2CCCCC(=O)*)N1

Assays:
Experiment in all cases: G' assay (10 uM PL peptide), results of TABLE 7 and TABLE 12
Type in all cases: binding
[1] = molecular target: T1, PDZ protein (GST-PDZ fusion) (Homo sapiens, UniProt Q6P0Q8)
T1 construct: made in house; host or cells: E. coli (DH5alpha, BL21 or JM109)
Outline: (§1)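 Same steps as the G-zero format, apart from a peptide concentration of 10 uM in place of 20 uM in step 2. Amino-terminally biotinylated PL peptides bind GST-PDZ fusions, and retained peptide is quantified by 450 nm absorbance.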

[2] = molecular target: T2, PDZ protein (GST-PDZ fusion) (Homo sapiens, UniProt Q12923)
T2 construct: made in house; host or cells: E. coli (DH5alpha, BL21 or JM109)
Outline: as §1

[3] = test system: PDZ protein (GST-PDZ fusion)
Outline: as §1

[4] = molecular target: T3, PDZ protein (GST-PDZ fusion) (Homo sapiens, UniProt Q5TCQ9)
T3 construct: made in house; host or cells: E. coli (DH5alpha, BL21 or JM109)
T3 sequence (Q5TCQ9 1-1481): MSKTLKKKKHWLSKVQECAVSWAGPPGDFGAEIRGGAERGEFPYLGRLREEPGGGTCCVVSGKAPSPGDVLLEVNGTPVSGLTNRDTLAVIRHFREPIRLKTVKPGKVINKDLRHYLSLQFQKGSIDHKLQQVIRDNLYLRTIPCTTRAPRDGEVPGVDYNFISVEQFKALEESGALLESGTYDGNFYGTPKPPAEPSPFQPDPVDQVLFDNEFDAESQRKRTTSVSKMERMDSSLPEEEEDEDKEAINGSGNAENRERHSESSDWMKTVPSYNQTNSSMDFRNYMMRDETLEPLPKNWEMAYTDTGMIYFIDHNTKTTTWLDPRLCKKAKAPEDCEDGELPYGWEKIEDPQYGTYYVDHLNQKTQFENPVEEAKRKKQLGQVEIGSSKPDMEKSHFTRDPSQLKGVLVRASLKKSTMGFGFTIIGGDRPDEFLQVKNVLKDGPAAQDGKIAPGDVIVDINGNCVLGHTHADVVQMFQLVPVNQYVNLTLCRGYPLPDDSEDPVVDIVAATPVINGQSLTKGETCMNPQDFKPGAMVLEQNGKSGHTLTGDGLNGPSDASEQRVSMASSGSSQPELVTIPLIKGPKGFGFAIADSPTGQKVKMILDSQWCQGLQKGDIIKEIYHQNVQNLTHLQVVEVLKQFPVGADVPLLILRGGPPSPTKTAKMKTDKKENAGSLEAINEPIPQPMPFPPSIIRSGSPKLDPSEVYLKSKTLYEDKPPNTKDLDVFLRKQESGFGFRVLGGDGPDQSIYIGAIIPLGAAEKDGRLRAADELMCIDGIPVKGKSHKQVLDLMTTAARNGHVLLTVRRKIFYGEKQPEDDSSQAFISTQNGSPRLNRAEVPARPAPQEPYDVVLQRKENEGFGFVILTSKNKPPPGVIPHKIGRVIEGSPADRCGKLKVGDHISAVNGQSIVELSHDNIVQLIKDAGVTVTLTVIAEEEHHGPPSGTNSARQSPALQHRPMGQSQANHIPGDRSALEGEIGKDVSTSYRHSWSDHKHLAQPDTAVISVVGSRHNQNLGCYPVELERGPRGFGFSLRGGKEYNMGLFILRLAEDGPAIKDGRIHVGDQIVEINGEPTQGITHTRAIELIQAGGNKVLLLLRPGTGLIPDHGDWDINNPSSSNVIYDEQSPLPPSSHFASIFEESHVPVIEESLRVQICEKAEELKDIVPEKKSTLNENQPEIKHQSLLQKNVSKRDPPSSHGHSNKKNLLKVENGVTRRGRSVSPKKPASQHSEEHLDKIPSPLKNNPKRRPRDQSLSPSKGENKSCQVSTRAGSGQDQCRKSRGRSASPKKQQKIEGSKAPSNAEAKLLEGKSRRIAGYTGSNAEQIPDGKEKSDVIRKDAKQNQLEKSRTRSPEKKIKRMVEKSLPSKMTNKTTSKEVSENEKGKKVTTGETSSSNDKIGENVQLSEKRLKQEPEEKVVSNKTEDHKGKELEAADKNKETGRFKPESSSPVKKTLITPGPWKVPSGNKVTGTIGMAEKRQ
Outline: as §1

[5] = molecular target: T4, PDZ protein (GST-PDZ fusion) (Homo sapiens, UniProt O75970)
T4 construct: made in house; host or cells: E. coli (DH5alpha, BL21 or JM109)
Outline: as §1

[6] = PDZ HEMBA 1003117, PDZ Domain 1

T2 sequence (Q12923 whole entry, the tested form may be a part): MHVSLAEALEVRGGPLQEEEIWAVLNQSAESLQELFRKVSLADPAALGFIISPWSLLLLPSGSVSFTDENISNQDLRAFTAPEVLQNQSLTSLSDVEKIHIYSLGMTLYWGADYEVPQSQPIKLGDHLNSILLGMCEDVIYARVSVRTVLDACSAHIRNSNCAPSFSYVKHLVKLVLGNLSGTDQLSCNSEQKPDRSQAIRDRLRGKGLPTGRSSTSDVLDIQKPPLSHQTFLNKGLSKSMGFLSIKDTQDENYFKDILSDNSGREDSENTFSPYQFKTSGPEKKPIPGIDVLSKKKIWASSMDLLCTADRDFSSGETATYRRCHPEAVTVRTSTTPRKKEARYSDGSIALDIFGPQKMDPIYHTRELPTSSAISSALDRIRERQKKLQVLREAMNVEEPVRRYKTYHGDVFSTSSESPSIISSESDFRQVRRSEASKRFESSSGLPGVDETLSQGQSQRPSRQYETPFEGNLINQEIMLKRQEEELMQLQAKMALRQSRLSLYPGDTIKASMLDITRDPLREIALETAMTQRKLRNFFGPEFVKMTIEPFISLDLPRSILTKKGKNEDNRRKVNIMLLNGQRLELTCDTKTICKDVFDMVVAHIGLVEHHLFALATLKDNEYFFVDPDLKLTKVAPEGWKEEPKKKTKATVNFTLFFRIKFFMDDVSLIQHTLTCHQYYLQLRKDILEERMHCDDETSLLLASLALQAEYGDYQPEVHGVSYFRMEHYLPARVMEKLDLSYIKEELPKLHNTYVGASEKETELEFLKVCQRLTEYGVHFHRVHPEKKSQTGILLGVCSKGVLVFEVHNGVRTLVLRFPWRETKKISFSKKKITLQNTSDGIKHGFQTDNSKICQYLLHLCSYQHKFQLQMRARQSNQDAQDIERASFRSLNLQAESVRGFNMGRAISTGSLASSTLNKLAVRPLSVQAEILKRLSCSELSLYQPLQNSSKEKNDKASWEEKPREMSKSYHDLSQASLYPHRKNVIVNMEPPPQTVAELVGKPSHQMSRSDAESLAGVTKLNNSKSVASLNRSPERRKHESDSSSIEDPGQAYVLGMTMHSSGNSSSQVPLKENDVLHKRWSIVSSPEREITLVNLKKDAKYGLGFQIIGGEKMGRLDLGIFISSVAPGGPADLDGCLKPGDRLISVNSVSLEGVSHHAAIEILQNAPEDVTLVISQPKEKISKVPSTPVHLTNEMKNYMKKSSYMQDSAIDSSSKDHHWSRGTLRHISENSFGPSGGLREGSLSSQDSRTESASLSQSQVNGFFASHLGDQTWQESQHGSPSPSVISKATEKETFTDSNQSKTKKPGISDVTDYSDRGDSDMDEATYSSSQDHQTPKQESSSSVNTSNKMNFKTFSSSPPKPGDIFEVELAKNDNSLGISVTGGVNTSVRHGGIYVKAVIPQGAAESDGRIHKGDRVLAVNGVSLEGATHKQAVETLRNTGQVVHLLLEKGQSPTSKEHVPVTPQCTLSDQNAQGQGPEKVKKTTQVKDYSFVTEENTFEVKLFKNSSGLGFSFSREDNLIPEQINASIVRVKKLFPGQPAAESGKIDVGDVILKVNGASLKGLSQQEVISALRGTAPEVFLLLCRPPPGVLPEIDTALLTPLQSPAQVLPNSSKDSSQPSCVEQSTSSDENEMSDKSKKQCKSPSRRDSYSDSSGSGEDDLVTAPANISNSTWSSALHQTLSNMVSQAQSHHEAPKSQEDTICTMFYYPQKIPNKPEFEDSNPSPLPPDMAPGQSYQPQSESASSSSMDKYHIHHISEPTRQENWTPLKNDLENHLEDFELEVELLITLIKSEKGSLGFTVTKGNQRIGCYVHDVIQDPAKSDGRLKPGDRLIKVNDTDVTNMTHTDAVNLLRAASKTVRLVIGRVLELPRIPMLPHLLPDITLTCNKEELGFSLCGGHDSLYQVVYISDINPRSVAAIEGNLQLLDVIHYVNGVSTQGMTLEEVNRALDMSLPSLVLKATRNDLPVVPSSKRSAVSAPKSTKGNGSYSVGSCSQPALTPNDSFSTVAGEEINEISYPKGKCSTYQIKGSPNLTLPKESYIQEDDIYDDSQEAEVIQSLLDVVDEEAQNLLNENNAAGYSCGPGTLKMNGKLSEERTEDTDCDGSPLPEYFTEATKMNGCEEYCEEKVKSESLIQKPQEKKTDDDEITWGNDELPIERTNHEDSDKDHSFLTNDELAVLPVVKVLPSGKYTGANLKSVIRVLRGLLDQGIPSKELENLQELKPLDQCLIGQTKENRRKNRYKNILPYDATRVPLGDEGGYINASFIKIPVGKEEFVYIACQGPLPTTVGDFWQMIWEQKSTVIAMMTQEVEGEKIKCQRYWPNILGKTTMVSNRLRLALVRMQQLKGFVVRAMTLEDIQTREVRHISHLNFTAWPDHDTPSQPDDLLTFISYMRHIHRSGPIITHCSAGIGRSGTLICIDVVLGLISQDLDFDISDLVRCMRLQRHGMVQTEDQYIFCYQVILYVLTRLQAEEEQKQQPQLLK
T1 sequence (Q6P0Q8 whole entry, the tested form may be a part): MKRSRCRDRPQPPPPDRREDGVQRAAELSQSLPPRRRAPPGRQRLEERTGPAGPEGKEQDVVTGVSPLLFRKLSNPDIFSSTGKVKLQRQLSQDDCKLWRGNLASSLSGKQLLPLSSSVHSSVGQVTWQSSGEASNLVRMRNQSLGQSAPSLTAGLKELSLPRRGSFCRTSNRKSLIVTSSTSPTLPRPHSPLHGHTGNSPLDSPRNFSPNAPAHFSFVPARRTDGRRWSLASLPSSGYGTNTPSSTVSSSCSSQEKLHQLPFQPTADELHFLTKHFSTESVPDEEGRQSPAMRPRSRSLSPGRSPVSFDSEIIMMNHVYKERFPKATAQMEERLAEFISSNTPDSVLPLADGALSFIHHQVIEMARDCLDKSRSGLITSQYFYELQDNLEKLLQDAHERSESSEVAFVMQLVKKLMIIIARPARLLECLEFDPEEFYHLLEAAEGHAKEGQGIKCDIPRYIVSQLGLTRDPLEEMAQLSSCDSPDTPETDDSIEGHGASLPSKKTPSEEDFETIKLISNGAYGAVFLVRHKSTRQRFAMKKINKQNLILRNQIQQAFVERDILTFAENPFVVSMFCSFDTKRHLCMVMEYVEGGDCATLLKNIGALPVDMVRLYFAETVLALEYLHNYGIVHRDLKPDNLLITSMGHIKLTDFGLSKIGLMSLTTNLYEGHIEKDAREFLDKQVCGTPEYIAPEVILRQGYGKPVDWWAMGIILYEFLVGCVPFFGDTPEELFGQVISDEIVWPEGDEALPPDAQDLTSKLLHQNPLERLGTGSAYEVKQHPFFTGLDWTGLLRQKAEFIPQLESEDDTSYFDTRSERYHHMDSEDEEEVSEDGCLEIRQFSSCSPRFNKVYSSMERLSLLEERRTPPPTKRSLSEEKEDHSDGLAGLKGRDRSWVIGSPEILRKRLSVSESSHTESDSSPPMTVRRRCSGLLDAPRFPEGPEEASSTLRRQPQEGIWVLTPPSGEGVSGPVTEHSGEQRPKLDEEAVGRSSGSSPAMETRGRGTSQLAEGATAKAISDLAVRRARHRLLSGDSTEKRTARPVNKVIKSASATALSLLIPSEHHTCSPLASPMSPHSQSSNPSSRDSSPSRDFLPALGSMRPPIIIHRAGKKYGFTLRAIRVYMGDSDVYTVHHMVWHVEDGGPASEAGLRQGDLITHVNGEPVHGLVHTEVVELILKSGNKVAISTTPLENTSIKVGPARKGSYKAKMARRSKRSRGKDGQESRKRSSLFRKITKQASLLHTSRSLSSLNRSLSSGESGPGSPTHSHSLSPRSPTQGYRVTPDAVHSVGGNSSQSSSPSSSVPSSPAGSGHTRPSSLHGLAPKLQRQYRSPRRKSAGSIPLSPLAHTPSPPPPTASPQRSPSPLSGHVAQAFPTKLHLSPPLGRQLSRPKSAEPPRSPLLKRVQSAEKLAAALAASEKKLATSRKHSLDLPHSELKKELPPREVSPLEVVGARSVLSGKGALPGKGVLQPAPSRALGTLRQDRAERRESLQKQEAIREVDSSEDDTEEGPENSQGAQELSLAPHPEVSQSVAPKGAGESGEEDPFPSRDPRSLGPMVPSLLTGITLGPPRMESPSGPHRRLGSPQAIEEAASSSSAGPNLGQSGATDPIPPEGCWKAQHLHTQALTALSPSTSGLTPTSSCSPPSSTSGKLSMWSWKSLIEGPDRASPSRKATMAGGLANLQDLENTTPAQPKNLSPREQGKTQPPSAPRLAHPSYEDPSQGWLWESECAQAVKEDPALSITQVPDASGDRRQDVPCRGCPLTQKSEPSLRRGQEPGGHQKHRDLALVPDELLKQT

CC[C@H](C)[C@H](NC(=O)[C@H](CCCCN)NC(=O)[C@@H](NC(=O)[C@H](CO)NC(=O)[C@@H]1CCCN1C(=O)[C@H](Cc1ccccc1)NC(=O)[C@@H](NC(=O)[C@@H](NC(=O)[C@H](CCCNC(=N)N)NC(=O)[C@H](CCC(=O)O)NC(=O)[C@H](CC(C)C)NC(=O)[C@H](CC(C)C)NC(=O)[C@H](CC(C)C)NC(=O)[C@@H](NC(=O)CNC(=O)[C@@H](NC(=O)CCCC[C@@H]1SC[C@@H]2NC(=O)N[C@@H]21)C(C)C)[C@@H](C)O)C(C)C)[C@@H](C)CC)C(C)C)C(=O)N[C@@H](C)C(=O)N[C@H](C(=O)N[C@@H](CC(C)C)C(=O)N[C@H](C(=O)O)C(C)C)[C@@H](C)O [Adenovirus E4 Type9]
Classification ([1]; PDZ KIAA0807(S), PDZ Domain 1, Protein Optimal Conc 5): 3 (A450 nm 2-3)
Classification ([1]; PDZ KIAA807 (domain not given), PL peptide 10 uM): 4 (A450 nm 3-4)
Classification ([2]; PDZ PTPL-1, PDZ Domain 2, Protein Optimal Conc 5): 3 (A450 nm 2-3)
Classification ([2]; PDZ PTPL-1, PDZ Domain 4, PL peptide 10 uM): 4 (A450 nm 3-4)
Classification ([3]; PDZ BAI-1, PDZ Domain 2, Protein Optimal Conc 0.3): 5 (A450 nm of 4 more than 2× repeated)
Classification ([3]; PDZ BAI-1, PDZ Domain 3, Protein Optimal Conc 0.5): 5 (A450 nm of 4 more than 2× repeated)
Classification ([3]; PDZ BAI-1, PDZ Domain 4, Protein Optimal Conc 0.3): 5 (A450 nm of 4 more than 2× repeated)
Classification ([3]; PDZ BAI-1, PDZ Domain 6, PL peptide 10 uM): 1 (A450 nm 0-1)
Classification ([3]; PDZ Connector Enhancer, PDZ Domain 1, Protein Optimal Conc 5): 3 (A450 nm 2-3)
Classification ([3]; PDZ FLJ 00011, PDZ Domain 1, PL peptide 10 uM): 1 (A450 nm 0-1)
Classification ([3]; PDZ HEMBA 1003117, PDZ Domain 1, Protein Optimal Conc 5): 3 (A450 nm 2-3)
Classification ([4]; PDZ KIAA1634, PDZ Domain 1, PL peptide 10 uM): 5 (A450 nm of 4 more than 2× repeated)
Classification ([4]; PDZ KIAA1634, PDZ Domain 2, Protein Optimal Conc 5): 5 (A450 nm of 4 more than 2× repeated)
Classification ([4]; PDZ KIAA1634, PDZ Domain 4, Protein Optimal Conc 5): 4 (A450 nm 3-4)
Classification ([5]; PDZ MUPP-1, PDZ Domain 10, PL peptide 10 uM): 1 (A450 nm 0-1)
Classification ([5]; PDZ MUPP-1, PDZ Domain 11, Protein Optimal Conc 5): 5 (A450 nm of 4 more than 2× repeated)

ELLQFCRTPNPALKNGQYWV (Biotin-ELLQFCRTPNPALKNGQYWV)
Classification ([1]; PDZ KIAA807): 1 (A450 nm 0-1)
Classification ([1]; PDZ KIAA0807(S), PDZ Domain 1): 1 (A450 nm 0-1)
Classification ([2]; PDZ PTPL-1, PDZ Domain 4): 5 (A450 nm of 4 more than 2× repeated)
Classification ([3]; PDZ BAI-1, PDZ Domain 2): 2 (A450 nm 1-2)
Classification ([3]; PDZ BAI-1, PDZ Domain 6): 4 (A450 nm 3-4)
Classification [3, 6]: 5 (A450 nm of 4 more than 2× repeated)
Classification ([4]; PDZ KIAA1634, PDZ Domain 1): 5 (A450 nm of 4 more than 2× repeated)
Classification ([4]; PDZ KIAA1634, PDZ Domain 5): 2 (A450 nm 1-2)
Classification ([5]; PDZ MUPP-1, PDZ Domain 1): 2 (A450 nm 1-2)
Classification ([5]; PDZ MUPP-1, PDZ Domain 2): 5 (A450 nm of 4 more than 2× repeated)
Classification ([5]; PDZ MUPP-1, PDZ Domain 5): 5 (A450 nm of 4 more than 2× repeated)
Classification ([5]; PDZ MUPP-1, PDZ Domain 8): 2 (A450 nm 1-2)
Classification ([5]; PDZ MUPP-1, PDZ Domain 10): 4 (A450 nm 3-4)
Classification ([5]; PDZ MUPP-1, PDZ Domain 11): 5 (A450 nm of 4 more than 2× repeated)
Classification ([5]; PDZ MUPP-1, PDZ Domain 12): 1 (A450 nm 0-1)

CC[C@H](C)[C@H](NC(=O)[C@H](CCC(N)=O)NC(=O)[C@@H](NC(=O)[C@H](Cc1c[nH]cn1)NC(=O)[C@H](CCC(N)=O)NC(=O)[C@H](CC(=O)O)NC(=O)[C@H](CCC(=O)O)NC(=O)[C@H](CC(=O)O)NC(=O)[C@H](Cc1ccccc1)NC(=O)[C@@H]1CCCN1C(=O)[C@H](CCC(=O)O)NC(=O)[C@H](CC(N)=O)NC(=O)[C@H](CCC(=O)O)NC(=O)[C@@H]1CCCN1C(=O)[C@H](CC(=O)O)NC(=O)[C@H](CO)NC(=O)[C@H](CC(=O)O)NC(=O)CCCC[C@@H]1SC[C@@H]2NC(=O)N[C@@H]21)[C@@H](C)O)C(=O)N[C@H](C(=O)N[C@@H](CCCCN)C(=O)N[C@H](C(=O)O)C(C)C)[C@@H](C)O [PTEN]
Classification ([1]; PDZ KIAA0807(S), PDZ Domain 1): 5 (A450 nm of 4 more than 2× repeated)
Classification ([1]; PDZ KIAA807, PDZ Domain not given): 5 (A450 nm of 4 more than 2× repeated)
Classification ([2]; PDZ PTPL-1, PDZ Domain 2): 4 (A450 nm 3-4)
Classification ([2]; PDZ PTPL-1, PDZ Domain 4): 1 (A450 nm 0-1)
Classification ([3]; PDZ BAI-1, PDZ Domain 3): 2 (A450 nm 1-2)
Classification ([3]; PDZ FLJ 00011, PDZ Domain 1): 3 (A450 nm 2-3)
Classification [3, 6]: 1 (A450 nm 0-1)
Classification ([3]; PDZ SHANK, PDZ Domain 1): 3 (A450 nm 2-3)
Classification ([4]; PDZ KIAA1634, PDZ Domain 2): 5 (A450 nm of 4 more than 2× repeated)
Classification ([5]; PDZ MUPP-1, PDZ Domain 13): 5 (A450 nm of 4 more than 2× repeated)

CC[C@H](C)[C@H](NC(=O)[C@H](CCC(N)=O)NC(=O)CCCC[C@@H]1SC[C@@H]2NC(=O)N[C@@H]21)C(=O)N[C@@H](CO)C(=O)N1CCC[C@H]1C(=O)NCC(=O)NCC(=O)N[C@@H](CC(C)C)C(=O)N[C@@H](CCC(=O)O)C(=O)N1CCC[C@H]1C(=O)N1CCC[C@H]1C(=O)N[C@@H](CO)C(=O)N[C@@H](CCC(=O)O)C(=O)N[C@@H](CCCCN)C(=O)N[C@@H](Cc1c[nH]cn1)C(=O)N[C@@H](Cc1ccccc1)C(=O)N[C@@H](CCCNC(=N)N)C(=O)N[C@@H](CCC(=O)O)C(=O)N[C@H](C(=O)N[C@@H](CCC(=O)O)C(=O)N[C@H](C(=O)O)C(C)C)[C@@H](C)O [Tax]
Classification ([2]; PDZ PTPL-1, PDZ Domain 2): 2 (A450 nm 1-2)
Classification ([3]; PDZ BAI-1, PDZ Domain 2): 5 (A450 nm of 4 more than 2× repeated)
Classification ([3]; PDZ BAI-1, PDZ Domain 3): 1 (A450 nm 0-1)
Classification ([3]; PDZ BAI-1, PDZ Domain 4): 2 (A450 nm 1-2)
Classification ([3]; PDZ BAI-1, PDZ Domain 5): 5 (A450 nm of 4 more than 2× repeated)
Classification ([3]; PDZ BAI-1, PDZ Domain 6): 1 (A450 nm 0-1)
Classification ([3]; PDZ Connector Enhancer, PDZ Domain 1): 1 (A450 nm 0-1)
Classification ([3]; PDZ FLJ 00011, PDZ Domain 1): 1 (A450 nm 0-1)
Classification ([3]; PDZ FLJ 11215, PDZ Domain 1): 1 (A450 nm 0-1)
Classification ([4]; PDZ KIAA1634, PDZ Domain 1): 5 (A450 nm of 4 more than 2× repeated)
Classification ([4]; PDZ KIAA1634, PDZ Domain 2): 2 (A450 nm 1-2)
Classification ([4]; PDZ KIAA1634, PDZ Domain 4): 2 (A450 nm 1-2)
Classification ([4]; PDZ KIAA1634, PDZ Domain 5): 1 (A450 nm 0-1)
Classification ([5]; PDZ MUPP-1, PDZ Domain 13): 5 (A450 nm of 4 more than 2× repeated)
